# Results as given in patent publication US20230218618A1, “ADMINISTRATION OF SUMO-ACTIVATING ENZYME INHIBITOR AND ANTI-CD38 ANTIBODIES” (MILLENNIUM PHARMACEUTICALS, INC., priority 2020, published 2023).
# Legend:
# [1] = tested on: MOLP-8 human multiple myeloma cell line; experiment: Study 4: MOLP-8 xenograft human multiple myeloma subcutaneous tumor model; assay type: in vivo, SCID mice; conditions: for Tumor growth compared to vehicle (pairwise comparison): I-263a 7.5 mg/kg BIW 2 weeks (p < 0.05 as printed), daratumumab 2.5, 7.5 or 20 mg/kg (p < 0.01; p < 0.01; p < 0.001), I-263a with daratumumab 2.5, 7.5 or 20 mg/kg (p < 0.001); for GRI%: vs vehicle
# Description: (§1) Low tumor volumes can cause problems with the data analysis, so all measurements below 25 cubic mm (including 0 values) were excluded from the analysis. After this exclusion step, the tumor volume was assumed to follow an exponential growth model. More specifically, for a given animal and treatment group,
# (§2) Pairwise comparisons were performed, where the mean growth rates were compared for various pairs of treatment conditions. The results were summarized using the growth rate inhibition (GRI). Suppose µT and µC are the mean tumor growth rates for the treatment and reference groups, respectively. Define
# (§3) Here, µAB, µA, µB, and µControl are the mean growth rates for the combination, drug A, drug B, and control groups, respectively. As before, µv is the mean tumor growth rate for the vehicle group, which in most cases is the same as the control group. The standard error of the synergy score was calculated as the square root of the sum of squared standard errors across the four groups. The degrees of freedom were estimated using the Welch-Satterthwaite equation. A hypothesis test was performed to determine if the synergy score differed from 0. P-values were calculated by dividing the synergy score by its standard error and tested against a t-distribution (two-tailed) with the above-calculated degrees of freedom. A P value of less than 0.05 is statistically significant.
# (§4) The combination results can be interpreted as follows. Statistically significant negative synergy scores indicate a synergistic combination (“Syn.”). Statistically significant positive synergy scores indicate a sub-additive combination (“Sub-add.”) when the combination performs better (i.e. has a lower growth rate) than the best performing single agent. Statistically significant positive synergy scores indicate an antagonistic combination (“Antag.”) when the combination performs worse than the best performing single agent. Scores that are not statistically significant should be considered additive (“Add.”).
# MOLP-8 is a human multiple myeloma cell line. A MOLP-8 human xenograft tumor model was generated by subcutaneous inoculation with 4.0 × 10^6 MOLP-8 cells (cell suspension) in 14 weeks old female SCID mice (Vital River Laboratory Animal Technology Co., Ltd, Beijing, China) in the flank. When the mean tumor volume reached approximately 170 mm^3, the animals were randomized into one vehicle control and seven treatment groups (n=8/group). Mice were then dosed with 20% HPβCD or Compound I-263a or daratumumab over a 14-day period. Tumor growth and body weight were measured twice per week during the treatment and post-treatment periods, and mice were humanely euthanized once they had reached their humane endpoint.
# A 0.75 mg/mL stock solution of I-263a was formulated weekly in 20% HPβCD and administered IV based on exact animal body weight on each day of treatment, using a dosing volume of 10 mL/kg body weight. Final dose I-263a received was 7.5 mg/kg. I-263a was administered on a BIW schedule for 2 weeks (Days 1, 4, 8, and 11). Daratumumab (anti-CD38 antibody) (Janssen Biotech, Inc., Horsham, PA) was stored at 4° C. according to manufacturer’s instructions. Final dose daratumumab received was 2.5 mg/kg, 7.5 mg/kg, and 20 mg/kg based on exact animal body weight on each day of treatment, using a dosing volume of 10 mL/kg body weight. Daratumumab was administered intraperitoneally (IP) using a 0.1 mL dosing volume, on a BIW schedule for 2 weeks (Days 1, 4, 8, and 11).
# Tumors were measured twice weekly using Vernier calipers. Tumor volumes were calculated using standard equation: V = W^2 × L/2, where V = volume, W = width, and L = length for the tumor. When mean tumor volumes reached approximately 170 mm^3, mice were randomized into control and treatment groups. Mice were randomized into 8 groups (n=8/group) and dosed with vehicle (20% HPβCD), I-263a, daratumumab, or the combination of I-263a plus daratumumab at doses and schedules as described above. […]
# [2] = tested on: RPMI-8226 human multiple myeloma cell line; experiment: Study 6: RPMI-8226 human multiple myeloma subcutaneous tumor model; assay type: in vivo, SCID mice; conditions: for Tumor growth compared to vehicle-treated tumors (pairwise comparison): I-263a 7.5 mg/kg BIW 2 weeks, daratumumab 2.5, 7.5 or 20 mg/kg BIW 2 weeks, or both, p > 0.05; for GRI%: vs vehicle
# [3] = tested on: Daudi human Burkitt’s Lymphoma cell line; experiment: Study 7: Daudi xenograft human Burkitt's lymphoma subcutaneous tumor model (daratumumab or AB79); assay type: in vivo, CB17 SCID mice; conditions: for GRI%: vs vehicle; for Tumor growth relative to vehicle-treated tumors (pairwise comparison): each agent 7.5 mg/kg BIW, I-263a p = 0.105, daratumumab p < 0.001, AB79 p = 0.002, both combinations p < 0.001, data up to Day 22
# Description: as §1, §2, §3, §4
# Daudi is a human Burkitt’s Lymphoma cell line. A Daudi human xenograft tumor model was generated by subcutaneous inoculation with 2.0 × 10^6 Daudi cells (cell suspension) in 7 weeks old female CB17 SCID mice (Charles River Laboratories, 251 Ballardvale St., Wilmington, MA) in the flank. When the mean tumor volume reached approximately 110 mm3, the animals were randomized into one vehicle control and six treatment groups (n=8/group). Mice were then dosed with 20% HPβCD or Compound I-263a and/or daratumumab or AB79 over a 21-day period. Tumor growth and body weight were measured twice per week during the treatment and post-treatment periods, and mice were humanely euthanized once they had reached their humane endpoint.
# A 0.75 mg/mL stock solution of I-263a was formulated weekly in 20% HPβCD and administered intravenously (IV) based on an average body weight using a 0.2 mL dosing volume. Final doses of I-263a received were 7.5 mg/kg. I-263a was administered on a BIW schedule for 3 weeks (Days 1, 4, 8, 11, 15, and 18). Daratumumab (anti-CD38 antibody) (Myoderm Medical Supplies, 48 E Main St., Norristown, PA 19401) was purchased at the beginning of the study and stored at 4° C. according to manufacturer’s instructions. Final dose of daratumumab received was 7.5 mg/kg based on average body weight. Daratumumab was administered intraperitoneally (IP) using a 0.1 mL dosing volume, on a BIW schedule for 3 weeks (Days, 1, 4, 8, 11, 15, and 18). AB79 was formulated on the day of dosing in 0.9% saline and administered intraperitoneally (IP) using a 0.1 mL dosing volume, on a BIW schedule for 3 weeks (Days, 1, 4, 8, 11, 15, and 18). Final dose of AB79 was 7.5 mg/kg based on average body weight.
# Tumors were measured twice weekly using Vernier calipers. Tumor volumes were calculated using standard equation: V = W2 × L/2, where V = volume, W = width, and L = length for the tumor. […]
compound,measurement,setting,value
"Cc1sc(C(=O)c2cncnc2N[C@@H]2C[C@H](COS(N)(=O)=O)[C@@H](O)C2)cc1[C@@H]1NCCc2ccc(Cl)cc21 [Compound I-263a, [(1R,2S,4R)-4-{[5-({4-[(1R)-7-chloro-1,2,3,4-tetrahydroisoquinolin-1-yl]-5-methyl-2-thienyl}carbonyl)pyrimidin-4-yl]amino}-2-hydroxycyclopentyl]methyl sulfamate]",Tumor growth compared to vehicle (pairwise comparison),[1],not significantly different
same,Tumor volume on Day 14 (± SEM),[1]; I-263a 7.5 mg/kg BIW IV,2500.8 ± 106.6
same,GRI%,[1]; I-263a 7.5 mg/kg BIW IV,3%
same,Tumor growth compared to vehicle-treated tumors (pairwise comparison),[2],not significantly different than vehicle-treated tumors
same,Tumor volume on Day 20 (± SEM),[2]; I-263a 7.5 mg/kg BIW IV,1763.2 ± 213.2
same,GRI%,[2]; I-263a 7.5 mg/kg BIW IV,-12%
same,Tumor Volume on Day 22 (±SEM),[3]; I-263a 7.5 mg/kg BIW IV,1305 (±83.6)
same,GRI%,[3]; I-263a 7.5 mg/kg BIW IV,13%
same,Tumor growth relative to vehicle-treated tumors (pairwise comparison),[3],tumor growth inhibition
Daratumumab: immunoglobulin G1 kappa (IgG1κ) human monoclonal antibody against CD38 antigen,Tumor volume on Day 14 (± SEM),[1]; Daratumumab 2.5 mg/kg BIW IP,2047.4 ± 83.4
same,GRI%,[1]; Daratumumab 2.5 mg/kg BIW IP,11%
same,Tumor volume on Day 14 (± SEM),[1]; Daratumumab 7.5 mg/kg BIW IP,1653 ± 158.5
same,GRI%,[1]; Daratumumab 7.5 mg/kg BIW IP,20%
same,Tumor volume on Day 14 (± SEM),[1]; Daratumumab 20 mg/kg BIW IP,1250.6 ± 108.6
same,GRI%,[1]; Daratumumab 20 mg/kg BIW IP,28%
same,Tumor growth compared to vehicle (pairwise comparison),[1],significantly inhibited growth curves
same,Tumor volume on Day 20 (± SEM),[2]; Daratumumab 2.5 mg/kg BIW IP,1875.5 ± 170.1
same,GRI%,[2]; Daratumumab 2.5 mg/kg BIW IP,-6%
same,Tumor volume on Day 20 (± SEM),[2]; Daratumumab 7.5 mg/kg BIW IP,1510.7 ± 144.6
same,GRI%,[2]; Daratumumab 7.5 mg/kg BIW IP,-2%
same,Tumor volume on Day 20 (± SEM),[2]; Daratumumab 20 mg/kg BIW IP,1456.6 ± 166.6
same,GRI%,[2]; Daratumumab 20 mg/kg BIW IP,11%
same,Tumor growth compared to vehicle-treated tumors (pairwise comparison),[2],not significantly different than vehicle-treated tumors
same,Tumor Volume on Day 22 (±SEM),[3]; Daratumumab 7.5 mg/kg BIW IP,1004.9 (±97.1)
same,GRI%,[3]; Daratumumab 7.5 mg/kg BIW IP,31%
same,Tumor growth relative to vehicle-treated tumors (pairwise comparison),[3],tumor growth inhibition
